This is an account of results in patent US20260015574A1, “METHODS FOR SHORTENING LAG PHASE DURATION IN MICROORGANISMS” (YEDA RESEARCH AND DEVELOPMENT CO. LTD., priority 2022, published 2026).

Each structure is given as a SMILES string.

Test [1] concerns methionine synthesis activity in P. inhibens protein crude extracts. Nature of the test: Methionine synthesis activity assay with P. inhibens protein crude extracts. The class given is biochemical, Phaeobacter inhibens. The note with it: crude extracts of stationary bacterial cells treated with 1 μM DMSP for 2 hours; LC/MS. The protocol: The bacterium P. inhibens DSM 17395 was cultivated in 100 mL ASW with 5.5 mM glucose until reaching stationary phase, and then treated with 1 μM DMSP for 2 hours. Cell pellets of control and treated bacteria were harvested by 10 min centrifugation (15,000 rpm) at 4° C. The pellets were washed with buffer A (50 mM Hepes-KOH PH 7.5), resuspended in buffer B (50 mM Hepes-KOH PH 7.5, 10 mM β-mercaptoethanol, 1 mM EDTA) and disrupted by 5 min bead beating at 30 s^−1 with 300 mg silica beads (Mixer Mill MM-400, Retsch, Haan, Germany). The supernatant was collected by 5 min centrifugation (15,000 rpm). To measure the activity of enzymatic DMSP demethylation and methionine formation, 0.5 mL crude extract (1 mg/mL protein; determined with Bio-Rad protein assay, Hercules, California, U.S.) were incubated for 1 h with 1 mL Buffer C (60 mM PPB, 4.5 mM homocysteine, 4.5 mM DMSP, pH 7.5). The reaction mix was snap frozen in liquid nitrogen, and subsequently analyzed for product formation using LC/MS (FIG. 10).
To further elucidate the fate of methyl groups, the inventors analyzed the transcriptome of DMSP-treated P. inhibens bacteria during the lag phase, and compared it to untreated control cultures. […]

Test [2] deals with betaine-homocysteine S-methyltransferase (Bmt). Description: Methionine synthesis in vitro assay with purified Bmt. The settings on record: 200 μM methyl group donor, 2 mM homocysteine, 30° C., 2 h, fluorometric. The class given is biochemical, P. inhibens. The protocol:
The expression plasmid pET29b encoding the bmt gene with a Strep-tag II peptide sequence fused to the N-terminus was purchased from Twist Biosciences. The methionine synthase gene mmuM from E. coli was PCR-amplified (Phusion High-Fidelity DNA polymerase, Thermo Scientific) and cloned into the pET29b vector using the CPEC technique (Quan J. & Tian J., 2009). Resulting clones were validated by sanger sequencing. E. coli BL21 electrocompetent cells were transformed with […] of the expression vectors, and cells were selected on LB agar plates containing 50 μg/ml kanamycin. Bacteria were grown in Tryptone Yeast extract Glucose (TYG) medium supplemented with 50 μg/ml kanamycin at 37° C. to mid-log phase (OD600 0.7). Then, cultures were induced with 0.2 mM of IPTG for 3 hours at 37° C. Bacteria were harvested by centrifugation (4,000 rpm for 15 min at 4° C.) and cells were resuspended in 20 mL of NP buffer (50 mM NaH2PO4, 300 mM NaCl, pH 8) and 100 μl of 10× Protease inhibitor (Sigma). […] The Protein concentration was determined with the Protein Assay Dye Reagent Concentrate (BioRad) following the manufacturer's instructions. […]
The methionine synthesis in vitro assay was based on the protocol of Ranocha et al., 2000. […] Methionine formation was measured from 20 μl of the in vitro reactions using the Fluorometric Methionine Assay Kit (Sigma; results depicted in FIG. 14). […]

The subject of test [3] is P. inhibens dmdA KO mutant. Nature of the test: Lag phase shortening in dmdA knockout mutant. The class given is cell-based, Phaeobacter inhibens. Here is the method:
For creation of P. inhibens knockout cells, ˜1,000 bp regions upstream and downstream of the gene of interest were amplified by PCR (Phusion High-Fidelity DNA polymerase, Thermo Scientific), using primers that added homologous regions to gentamycin or kanamycin resistance markers. The fragments were assembled and cloned into the TOPOII vector (Invitrogen) using restriction-free cloning (Peleg Y. & Unger T., 2014), generating a knockout (KO) plasmid. P. inhibens electrocompetent cells (300 μl) were transformed with 10 μg of the constructed KO plasmid by a pulse of 1.8 kV (Bio Rad). Cells were selected on ½YTSS agar plates containing 30 μg/ml gentamycin or 150 μg/ml kanamycin. Successful knockouts in single cell clones were verified by PCR and sanger sequencing.
The inventors further sought to better understand why methyl groups shorten the bacterial lag phase. The inventors list at least three cellular scenarios which could explain the effect that methylated compounds have on the lag phase: (1) methyl groups might be a limiting resource; (2) methyl groups might act as a signal that triggers a cellular cascade, which culminates in lag phase shortening; and (3) methylated compounds could accumulate intracellularly and function as osmoprotectants and antioxidants. […]

Consider `C[S+](C)CCC(=O)[O-]` [DMSP, dimethylsulfoniopropionate], for which the methionine synthesis activity result in test [1] is listed as “elevated”. In test [2], the “methionine formation with DMSP as methyl group donor” value is given as “catalyzes the production of methionine”. Moreover, the lag phase shortening result in test [3] is on record as “does not shorten the lag phase”.
